Laboratory results published in ChEMBL document CHEMBL4706755, “Novel Small Molecule RNA m6A Demethylase AlkBH5 Inhibitors for Treating Cancer” (ACS Med Chem Lett, 2021).

Molecular target: RNA demethylase ALKBH5 (Homo sapiens, UniProt Q6P6C2)
Experiment: Inhibition of ALKBH5 demethylase activity (unknown origin) assessed as increase in methylated 6A-RNA level incubated for 2 hrs by colorimetric analysis

Sequence of RNA demethylase ALKBH5 (Q6P6C2 whole entry): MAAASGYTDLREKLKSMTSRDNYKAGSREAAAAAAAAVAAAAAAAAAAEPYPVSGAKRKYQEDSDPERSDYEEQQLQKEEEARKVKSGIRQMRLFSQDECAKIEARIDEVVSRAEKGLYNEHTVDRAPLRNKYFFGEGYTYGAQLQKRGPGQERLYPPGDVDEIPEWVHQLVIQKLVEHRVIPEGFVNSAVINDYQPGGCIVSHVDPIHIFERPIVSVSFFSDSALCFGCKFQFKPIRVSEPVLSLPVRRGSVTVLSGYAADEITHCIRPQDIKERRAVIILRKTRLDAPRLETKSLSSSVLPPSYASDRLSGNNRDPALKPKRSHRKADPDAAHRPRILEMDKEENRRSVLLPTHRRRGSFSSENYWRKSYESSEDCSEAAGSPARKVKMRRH

IC50: 840 nM
SMILES: O=C(O)CSC(O)C(=O)c1ccccc1 (stereo unspecified)
